Measurements published in patent US8927533B2, “Thio derivatives bearing lactams as potent HDAC inhibitors and their uses as medicaments” (SIGMA-TAU Industrie Farmaceutiche Riunite S.p.A., priority 2011, dated 2015).
Where two headings read alike, the source gives them in different places.

Tests used:
Assay type in all cases: biochemical
HDAC1 = HDAC1 (Homo sapiens, UniProt Q13547); test: HDAC enzymatic assay, HDAC1
Method: (§1) Each compound was dissolved in DMSO, and progressively diluted solutions were used for testing. […] Upon its deacetylation, the fluorophore was released given rise to fluorescence emission which was detected by a fluorimeter, and the IC50 values of the compounds were determined by analyzing dose-response inhibition curves.

HDAC2 = HDAC2 (Homo sapiens, UniProt Q92769); test: HDAC enzymatic assay, HDAC2
Method: as §1

[1] = target: T1, HDAC3 (complex of full length human HDAC3 with human NCOR2 amino acids 395-489) (Homo sapiens, UniProt O15379); test: HDAC enzymatic assay, HDAC3
T1 construct: complex of full length human HDAC3 with a C-terminal His-tag; His-tag (C); host or cells: baculovirus expression system
Method: as §1

HDAC5 = HDAC5 (Homo sapiens, UniProt Q9UQL6); test: HDAC enzymatic assay, HDAC5
Method: as §1

HDAC6 = target: T2, HDAC6 (Homo sapiens, UniProt Q9UBN7); test: HDAC enzymatic assay, HDAC6
T2 sequence (Q9UBN7 1-1215): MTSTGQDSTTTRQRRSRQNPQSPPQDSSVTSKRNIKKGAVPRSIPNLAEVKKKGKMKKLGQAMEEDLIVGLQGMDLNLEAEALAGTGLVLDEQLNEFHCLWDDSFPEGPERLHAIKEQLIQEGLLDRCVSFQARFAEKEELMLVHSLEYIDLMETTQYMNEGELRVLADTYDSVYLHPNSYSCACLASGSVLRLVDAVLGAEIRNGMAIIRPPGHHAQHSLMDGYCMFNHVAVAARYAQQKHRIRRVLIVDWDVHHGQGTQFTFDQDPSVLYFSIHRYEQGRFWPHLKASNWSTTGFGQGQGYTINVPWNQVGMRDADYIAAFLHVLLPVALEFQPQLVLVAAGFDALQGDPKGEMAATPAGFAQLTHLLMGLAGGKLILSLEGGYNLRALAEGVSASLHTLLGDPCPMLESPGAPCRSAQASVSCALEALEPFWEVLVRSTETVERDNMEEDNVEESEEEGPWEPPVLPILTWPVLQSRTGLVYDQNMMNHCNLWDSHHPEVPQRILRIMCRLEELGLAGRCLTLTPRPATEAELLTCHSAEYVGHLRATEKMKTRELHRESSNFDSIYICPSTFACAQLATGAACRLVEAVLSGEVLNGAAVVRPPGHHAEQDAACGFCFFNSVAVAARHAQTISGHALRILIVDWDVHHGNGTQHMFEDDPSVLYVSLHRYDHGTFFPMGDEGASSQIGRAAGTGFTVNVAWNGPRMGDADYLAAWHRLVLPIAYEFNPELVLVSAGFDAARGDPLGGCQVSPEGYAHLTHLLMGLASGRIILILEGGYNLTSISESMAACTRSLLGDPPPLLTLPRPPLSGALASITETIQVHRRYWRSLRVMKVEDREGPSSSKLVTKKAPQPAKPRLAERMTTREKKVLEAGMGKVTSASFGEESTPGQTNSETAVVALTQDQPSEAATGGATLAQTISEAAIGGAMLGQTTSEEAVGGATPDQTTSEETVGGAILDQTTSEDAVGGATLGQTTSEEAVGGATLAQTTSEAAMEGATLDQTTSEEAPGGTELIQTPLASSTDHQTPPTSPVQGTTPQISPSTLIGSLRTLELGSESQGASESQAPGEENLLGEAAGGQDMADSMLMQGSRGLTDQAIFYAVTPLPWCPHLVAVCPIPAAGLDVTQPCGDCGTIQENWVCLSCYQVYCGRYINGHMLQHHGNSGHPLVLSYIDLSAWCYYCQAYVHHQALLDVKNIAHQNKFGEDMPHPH
Method: as §1

HDAC8 = target: T3, HDAC8 (Homo sapiens, UniProt Q9BY41); test: HDAC enzymatic assay, HDAC8
T3 sequence (Q9BY41 1-377): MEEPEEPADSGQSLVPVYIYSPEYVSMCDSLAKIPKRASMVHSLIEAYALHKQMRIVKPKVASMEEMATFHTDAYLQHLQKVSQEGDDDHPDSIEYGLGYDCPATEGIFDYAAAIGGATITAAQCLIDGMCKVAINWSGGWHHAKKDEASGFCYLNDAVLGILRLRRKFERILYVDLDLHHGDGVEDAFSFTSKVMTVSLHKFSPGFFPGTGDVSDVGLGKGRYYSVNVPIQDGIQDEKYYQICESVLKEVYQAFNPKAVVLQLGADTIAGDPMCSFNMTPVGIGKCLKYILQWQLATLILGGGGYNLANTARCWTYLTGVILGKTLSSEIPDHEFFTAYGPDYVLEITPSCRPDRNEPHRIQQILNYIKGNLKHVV
Method: as §1

HDAC9 = HDAC9 (Homo sapiens, UniProt Q9UKV0); test: HDAC enzymatic assay, HDAC9
Method: as §1

HDAC11 = target: T4, HDAC11 (Homo sapiens, UniProt Q96DB2); test: HDAC enzymatic assay, HDAC11
T4 sequence (Q96DB2 1-347): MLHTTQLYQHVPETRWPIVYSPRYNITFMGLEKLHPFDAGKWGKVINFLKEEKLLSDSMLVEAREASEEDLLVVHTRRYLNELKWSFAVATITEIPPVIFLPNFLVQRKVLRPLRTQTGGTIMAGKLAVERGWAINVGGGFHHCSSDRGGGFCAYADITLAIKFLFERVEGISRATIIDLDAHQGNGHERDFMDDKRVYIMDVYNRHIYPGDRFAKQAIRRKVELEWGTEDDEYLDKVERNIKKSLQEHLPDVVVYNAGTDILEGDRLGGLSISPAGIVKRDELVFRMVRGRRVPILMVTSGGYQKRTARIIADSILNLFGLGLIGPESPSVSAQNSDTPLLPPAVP
Method: as §1

[2] = fluorogenic tetrapeptide RHKKAc substrate 10 μM, read-out: HDAC isoforms IC50 (nM), 1
[3] = fluorogenic tetrapeptide RHKKAc substrate 10 μM, read-out: HDAC isoforms IC50 (nM), 2
[4] = fluorogenic tetrapeptide RHKKAc substrate 10 μM, read-out: HDAC isoforms IC50 (nM), 3
[5] = fluorogenic tetrapeptide RHKKAc substrate 10 μM, read-out: HDAC isoforms IC50 (nM), 5
[6] = fluorogenic tetrapeptide RHKKAc substrate 10 μM, read-out: HDAC isoforms IC50 (nM), 6
[7] = fluorogenic tetrapeptide RHKKAc substrate 10 μM, read-out: HDAC isoforms IC50 (nM), 8
[8] = fluorogenic tetrapeptide RHKKAc substrate 10 μM, read-out: HDAC isoforms IC50 (nM), 9
[9] = fluorogenic tetrapeptide RHKKAc substrate 10 μM, read-out: HDAC isoforms IC50 (nM), 11

HDAC5, sequence (Q9UQL6 whole entry): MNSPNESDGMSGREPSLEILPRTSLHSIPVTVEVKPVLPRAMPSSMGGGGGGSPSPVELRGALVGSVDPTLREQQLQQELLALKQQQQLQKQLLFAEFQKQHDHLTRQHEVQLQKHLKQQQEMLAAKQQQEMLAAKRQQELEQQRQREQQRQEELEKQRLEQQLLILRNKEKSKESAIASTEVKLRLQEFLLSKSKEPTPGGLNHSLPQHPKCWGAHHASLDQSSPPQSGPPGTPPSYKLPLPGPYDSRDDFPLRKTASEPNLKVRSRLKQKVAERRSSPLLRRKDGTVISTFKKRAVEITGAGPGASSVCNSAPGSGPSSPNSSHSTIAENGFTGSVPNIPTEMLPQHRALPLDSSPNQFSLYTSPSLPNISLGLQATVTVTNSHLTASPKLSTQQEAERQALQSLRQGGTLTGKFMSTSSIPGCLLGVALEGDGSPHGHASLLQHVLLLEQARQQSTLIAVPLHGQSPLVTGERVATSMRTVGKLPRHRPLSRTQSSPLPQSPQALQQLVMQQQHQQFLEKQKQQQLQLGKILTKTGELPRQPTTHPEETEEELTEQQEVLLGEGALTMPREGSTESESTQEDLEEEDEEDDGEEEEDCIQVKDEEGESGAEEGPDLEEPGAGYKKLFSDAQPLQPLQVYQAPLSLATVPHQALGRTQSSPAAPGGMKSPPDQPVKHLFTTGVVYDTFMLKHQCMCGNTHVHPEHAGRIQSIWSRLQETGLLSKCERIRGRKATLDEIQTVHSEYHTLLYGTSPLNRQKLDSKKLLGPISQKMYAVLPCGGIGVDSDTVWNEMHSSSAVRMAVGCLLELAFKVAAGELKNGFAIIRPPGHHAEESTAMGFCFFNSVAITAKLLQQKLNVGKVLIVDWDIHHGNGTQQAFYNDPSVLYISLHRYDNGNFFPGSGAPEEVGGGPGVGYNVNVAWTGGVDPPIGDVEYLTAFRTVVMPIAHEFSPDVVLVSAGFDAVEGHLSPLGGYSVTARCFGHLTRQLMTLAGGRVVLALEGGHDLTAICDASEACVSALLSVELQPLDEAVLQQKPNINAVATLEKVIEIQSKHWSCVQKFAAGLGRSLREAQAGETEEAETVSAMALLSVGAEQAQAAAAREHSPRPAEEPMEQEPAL
HDAC1, sequence (Q13547 whole entry): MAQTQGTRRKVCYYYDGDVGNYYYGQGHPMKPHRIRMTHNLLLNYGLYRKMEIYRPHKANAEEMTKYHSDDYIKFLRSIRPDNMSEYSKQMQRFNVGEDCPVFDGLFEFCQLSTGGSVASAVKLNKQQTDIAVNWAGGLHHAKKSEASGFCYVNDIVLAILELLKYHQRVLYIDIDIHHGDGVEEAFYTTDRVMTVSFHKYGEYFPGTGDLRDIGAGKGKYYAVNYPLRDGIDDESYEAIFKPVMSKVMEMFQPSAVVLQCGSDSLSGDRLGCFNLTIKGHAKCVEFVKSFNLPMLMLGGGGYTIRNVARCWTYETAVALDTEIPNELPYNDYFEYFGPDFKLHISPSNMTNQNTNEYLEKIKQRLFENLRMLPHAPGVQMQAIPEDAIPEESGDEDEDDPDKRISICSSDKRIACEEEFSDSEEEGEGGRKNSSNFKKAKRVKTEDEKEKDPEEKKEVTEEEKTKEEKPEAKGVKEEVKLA
T1 sequence (O15379 whole entry, the tested form may be a part): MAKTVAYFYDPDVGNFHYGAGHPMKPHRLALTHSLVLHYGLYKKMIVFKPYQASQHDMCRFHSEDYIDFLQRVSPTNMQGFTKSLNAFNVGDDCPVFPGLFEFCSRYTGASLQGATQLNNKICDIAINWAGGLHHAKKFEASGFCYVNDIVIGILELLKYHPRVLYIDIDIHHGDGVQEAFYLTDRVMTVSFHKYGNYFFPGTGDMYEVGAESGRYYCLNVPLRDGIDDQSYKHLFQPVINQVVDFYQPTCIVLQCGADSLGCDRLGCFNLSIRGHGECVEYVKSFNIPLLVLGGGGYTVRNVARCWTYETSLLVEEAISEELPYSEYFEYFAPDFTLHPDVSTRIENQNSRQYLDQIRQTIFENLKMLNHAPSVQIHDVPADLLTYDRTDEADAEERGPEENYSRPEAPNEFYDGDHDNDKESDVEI
T1 sequence (Q9Y618 395-489 partner limits assumed): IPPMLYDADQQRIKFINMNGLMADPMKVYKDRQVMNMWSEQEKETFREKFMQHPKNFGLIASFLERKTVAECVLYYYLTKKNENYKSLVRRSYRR
HDAC9, sequence (Q9UKV0 whole entry): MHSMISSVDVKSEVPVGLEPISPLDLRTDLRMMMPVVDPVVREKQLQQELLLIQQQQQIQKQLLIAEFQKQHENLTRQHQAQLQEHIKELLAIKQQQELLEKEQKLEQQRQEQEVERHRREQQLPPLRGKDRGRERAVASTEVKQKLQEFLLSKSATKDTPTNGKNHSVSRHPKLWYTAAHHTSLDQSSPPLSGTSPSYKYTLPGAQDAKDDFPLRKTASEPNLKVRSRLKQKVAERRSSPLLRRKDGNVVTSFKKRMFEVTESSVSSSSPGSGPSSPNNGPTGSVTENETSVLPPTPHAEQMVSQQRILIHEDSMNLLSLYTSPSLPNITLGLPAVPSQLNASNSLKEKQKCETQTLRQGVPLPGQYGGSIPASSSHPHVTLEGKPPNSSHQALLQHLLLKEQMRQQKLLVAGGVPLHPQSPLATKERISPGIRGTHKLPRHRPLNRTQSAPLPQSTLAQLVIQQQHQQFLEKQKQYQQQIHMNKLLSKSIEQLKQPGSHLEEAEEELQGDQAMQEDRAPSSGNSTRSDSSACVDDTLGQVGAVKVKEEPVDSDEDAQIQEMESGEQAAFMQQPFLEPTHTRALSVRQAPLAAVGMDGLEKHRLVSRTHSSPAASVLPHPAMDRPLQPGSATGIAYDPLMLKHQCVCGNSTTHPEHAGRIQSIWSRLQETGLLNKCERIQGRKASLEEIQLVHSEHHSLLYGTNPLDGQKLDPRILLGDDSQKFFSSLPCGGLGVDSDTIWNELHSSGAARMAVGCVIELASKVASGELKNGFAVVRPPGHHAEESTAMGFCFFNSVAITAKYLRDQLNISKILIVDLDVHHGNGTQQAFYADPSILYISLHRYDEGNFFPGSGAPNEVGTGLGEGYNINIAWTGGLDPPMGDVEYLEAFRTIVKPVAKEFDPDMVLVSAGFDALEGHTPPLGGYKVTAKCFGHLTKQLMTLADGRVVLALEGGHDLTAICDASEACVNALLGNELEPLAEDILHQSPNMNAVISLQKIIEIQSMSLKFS
HDAC2, sequence (Q92769 whole entry): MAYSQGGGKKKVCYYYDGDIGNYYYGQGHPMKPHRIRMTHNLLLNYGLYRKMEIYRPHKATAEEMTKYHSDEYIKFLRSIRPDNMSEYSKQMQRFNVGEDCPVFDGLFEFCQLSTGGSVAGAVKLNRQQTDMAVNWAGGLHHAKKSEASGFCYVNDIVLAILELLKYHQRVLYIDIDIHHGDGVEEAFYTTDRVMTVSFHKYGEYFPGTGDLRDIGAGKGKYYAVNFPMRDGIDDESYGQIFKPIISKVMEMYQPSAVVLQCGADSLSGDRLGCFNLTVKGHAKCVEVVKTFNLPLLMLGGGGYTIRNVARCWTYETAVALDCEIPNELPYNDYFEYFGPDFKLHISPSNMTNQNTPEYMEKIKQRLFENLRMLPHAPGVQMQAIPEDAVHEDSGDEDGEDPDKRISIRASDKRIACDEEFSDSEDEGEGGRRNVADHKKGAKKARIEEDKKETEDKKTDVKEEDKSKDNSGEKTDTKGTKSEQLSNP

SMILES | IC50 (HDAC1; Table 2, thio (SH) vs hydroxamate (CONHOH) MBG analogues, read-out: HDAC isoforms, 1 (IC50)) | IC50 (HDAC2; Table 2, thio (SH) vs hydroxamate (CONHOH) MBG analogues, read-out: HDAC isoforms, 2 (IC50)) | IC50 ([1]; Table 2, thio (SH) vs hydroxamate (CONHOH) MBG analogues, read-out: HDAC isoforms, 3 (IC50)) | IC50 (HDAC5; Table 2, thio (SH) vs hydroxamate (CONHOH) MBG analogues, read-out: HDAC isoforms, 5 (IC50)) | IC50 (HDAC6; Table 2, thio (SH) vs hydroxamate (CONHOH) MBG analogues, read-out: HDAC isoforms, 6 (IC50)) | IC50 (HDAC8; Table 2, thio (SH) vs hydroxamate (CONHOH) MBG analogues, read-out: HDAC isoforms, 8 (IC50)) | IC50 (HDAC9; Table 2, thio (SH) vs hydroxamate (CONHOH) MBG analogues, read-out: HDAC isoforms, 9 (IC50)) | IC50 (HDAC11; Table 2, thio (SH) vs hydroxamate (CONHOH) MBG analogues, read-out: HDAC isoforms, 11 (IC50)) | IC50 (HDAC1; [2]) | IC50 (HDAC2; [3]) | IC50 [1, 4] | IC50 (HDAC5; [5]) | IC50 (HDAC6; [6]) | IC50 (HDAC8; [7]) | IC50 (HDAC9; [8]) | IC50 (HDAC11; [9])
CC(=O)SCCCCC[C@H](NC(=O)[C@H]1CCC(=O)N1)C(=O)Nc1ccccc1 [Example 21, Thioacetic acid S—{(S)-6-[((R)-5-oxo-pyrrolidine-2-carbonyl)-amino]-6-phenylcarbamoyl-hexyl}ester] | < 50 nM | 50 to 100 nM | < 50 nM | < 50 nM | < 50 nM | 100 to 500 nM | < 50 nM | < 50 nM |  |  |  |  |  |  |  | 
O=C1CCC[C@@H](C(=O)N[C@@H](CCCCCS)C(=O)Nc2ccccc2)N1 [Example 23, (S)-6-Oxo-piperidine-2-carboxylic acid ((S)-6-mercapto-1-phenylcarbamoyl-hexyl)amide] |  |  |  |  |  |  |  |  | < 50 nM | 50 to 100 nM | < 50 nM | < 50 nM | < 50 nM | 100 to 500 nM | < 50 nM | < 50 nM
O=C1CCC[C@@H](C(=O)N[C@@H](CCCCCS)C(=O)NC2CCCC2)N1 [Example 24, (S)-6-Oxo-piperidine-2-carboxylic acid ((S)-1-cyclopentylcarbamoyl-6-mercapto-hexyl)amide] |  |  |  |  |  |  |  |  | 100 to 500 nM | 100 to 500 nM | 50 to 100 nM | 100 to 500 nM | < 50 nM | 100 to 500 nM | < 50 nM | 50 to 100 nM
O=C1CCC[C@@H](C(=O)N[C@@H](CCCCCS)C(=O)NCc2cccc(OCc3ccccc3)c2)N1 [Example 25, (S)-6-Oxo-piperidine-2-carboxylic acid [(S)-1-(3-benzyloxy-benzylcarbamoyl)-6-mercapto-hexyl]-amide] |  |  |  |  |  |  |  |  | 100 to 500 nM | 100 to 500 nM | 100 to 500 nM | 100 to 500 nM | 50 to 100 nM | < 50 nM | 100 to 500 nM | 100 to 500 nM
O=C1CCC[C@@H](C(=O)N[C@@H](CCCCCS)C(=O)NCc2ccc(C(F)(F)F)cc2)N1 [Example 26, (S)-6-Oxo-piperidine-2-carboxylic acid [(S)-6-mercapto-1-(4-trifluoromethyl-benzylcarbamoyl)-hexyl]-amide] |  |  |  |  |  |  |  |  | 100 to 500 nM | 100 to 500 nM | 100 to 500 nM | 100 to 500 nM | 100 to 500 nM | < 50 nM | 100 to 500 nM | 100 to 500 nM
O=C1C[C@@H](C(=O)N[C@@H](CCCCCS)C(=O)Nc2ccccc2)N1 [Example 27, (S)-4-Oxo-azetidine-2-carboxylic acid ((S)-6-mercapto-1-phenylcarbamoyl-hexyl)amide] |  |  |  |  |  |  |  |  | < 50 nM | 50 to 100 nM | < 50 nM | < 50 nM | < 50 nM | 50 to 100 nM | < 50 nM | < 50 nM

Further lines, results first:

IC50 (HDAC1; Table 2, thio (SH) vs hydroxamate (CONHOH) MBG analogues, read-out: HDAC isoforms, 1 (IC50)) | IC50 (HDAC2; Table 2, thio (SH) vs hydroxamate (CONHOH) MBG analogues, read-out: HDAC isoforms, 2 (IC50)) | IC50 ([1]; Table 2, thio (SH) vs hydroxamate (CONHOH) MBG analogues, read-out: HDAC isoforms, 3 (IC50)) | IC50 (HDAC5; Table 2, thio (SH) vs hydroxamate (CONHOH) MBG analogues, read-out: HDAC isoforms, 5 (IC50)) | IC50 (HDAC6; Table 2, thio (SH) vs hydroxamate (CONHOH) MBG analogues, read-out: HDAC isoforms, 6 (IC50)) | IC50 (HDAC8; Table 2, thio (SH) vs hydroxamate (CONHOH) MBG analogues, read-out: HDAC isoforms, 8 (IC50)) | IC50 (HDAC9; Table 2, thio (SH) vs hydroxamate (CONHOH) MBG analogues, read-out: HDAC isoforms, 9 (IC50)) | IC50 (HDAC11; Table 2, thio (SH) vs hydroxamate (CONHOH) MBG analogues, read-out: HDAC isoforms, 11 (IC50)) | IC50 (HDAC1; [2]) | IC50 (HDAC2; [3]) | IC50 [1, 4] | IC50 (HDAC5; [5]) | IC50 (HDAC6; [6]) | IC50 (HDAC8; [7]) | IC50 (HDAC9; [8]) | IC50 (HDAC11; [9]) | SMILES
 |  |  |  |  |  |  |  | < 50 nM | 100 to 500 nM | < 50 nM | 50 to 100 nM | < 50 nM | 100 to 500 nM | < 50 nM | < 50 nM | O=C1NC[C@H](c2ccccc2)[C@@H]1C(=O)N[C@@H](CCCCCS)C(=O)Nc1ccccc1 [Example 28, (3S,4S)-2-Oxo-4-phenyl-pyrrolidine-3-carboxylic acid ((S)-6-mercapto-1-phenylcarbamoyl-hexyl)-amide]
 |  |  |  |  |  |  |  | 50 to 100 nM | 100 to 500 nM | 50 to 100 nM | 100 to 500 nM | < 50 nM | 100 to 500 nM | 50 to 100 nM | < 50 nM | O=C1NC[C@@H](c2ccccc2)[C@H]1C(=O)N[C@@H](CCCCCS)C(=O)Nc1ccccc1 [Example 29, (3R,4R)-2-Oxo-4-phenyl-pyrrolidine-3-carboxylic acid ((S)-6-mercapto-1-phenylcarbamoyl-hexyl)-amide]
 |  |  |  |  |  |  |  | 50 to 100 nM | 100 to 500 nM | 50 to 100 nM | 100 to 500 nM | 100 to 500 nM | 100 to 500 nM | 50 to 100 nM | < 50 nM | O=C1NC[C@H](c2ccccc2)[C@H]1C(=O)N[C@@H](CCCCCS)C(=O)Nc1ccccc1 [Example 30, (3R,4S)-2-Oxo-4-phenyl-pyrrolidine-3-carboxylic acid ((S)-6-mercapto-1-phenylcarbamoyl-hexyl)-amide]
 |  |  |  |  |  |  |  | 100 to 500 nM | < 50 nM | 100 to 500 nM | 100 to 500 nM | 100 to 500 nM | 100 to 500 nM | 100 to 500 nM | 100 to 500 nM | O=C1CCC[C@@H](C(=O)N[C@@H](CCCCCS)C(=O)N2CCc3ccccc3C2)N1 [Example 32, (S)-6-Oxo-piperidine-2-carboxylic acid [(S)-1-(3,4-dihydro-1H-isoquinoline-2-carbonyl)-6-mercapto-hexyl]-amide]
 |  |  |  |  |  |  |  | 50 to 100 nM | 100 to 500 nM | 100 to 500 nM | 100 to 500 nM | < 50 nM | < 50 nM | 100 to 500 nM | 50 to 100 nM | Cc1cccc(CCNC(=O)[C@H](CCCCCS)NC(=O)[C@@H]2CCCC(=O)N2)c1 [Example 34, (S)-6-Oxo-piperidine-2-carboxylic acid [(S)-6-mercapto-1-(2-m-tolyl-ethylcarbamoyl)hexyl]-amide]
